Where two headings read alike, the source gives them in different places.
Legend:
Format in all cases: cell-based
[1] = target: T1, 168 GPCRs (Homo sapiens, UniProt P18089); details: ADRA2B
T1 construct: host or cells: PathHunter cell lines
T1 sequence (P18089 1-450): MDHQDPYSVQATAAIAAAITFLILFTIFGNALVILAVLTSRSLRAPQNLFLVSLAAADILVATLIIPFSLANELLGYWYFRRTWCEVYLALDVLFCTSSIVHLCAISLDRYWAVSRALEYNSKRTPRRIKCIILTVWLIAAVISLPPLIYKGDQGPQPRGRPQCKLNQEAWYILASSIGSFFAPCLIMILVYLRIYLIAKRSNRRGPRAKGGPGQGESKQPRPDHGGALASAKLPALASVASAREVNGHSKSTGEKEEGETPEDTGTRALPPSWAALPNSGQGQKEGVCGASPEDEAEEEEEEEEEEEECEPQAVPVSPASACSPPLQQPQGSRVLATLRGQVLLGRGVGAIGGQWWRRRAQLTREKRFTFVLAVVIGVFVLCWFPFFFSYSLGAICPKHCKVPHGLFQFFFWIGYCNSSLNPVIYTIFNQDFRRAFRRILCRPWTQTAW

[2] = target: T2, 168 GPCRs (Homo sapiens, UniProt P29371); details: TACR3
T2 construct: host or cells: PathHunter cell lines
T2 sequence (P29371 1-465): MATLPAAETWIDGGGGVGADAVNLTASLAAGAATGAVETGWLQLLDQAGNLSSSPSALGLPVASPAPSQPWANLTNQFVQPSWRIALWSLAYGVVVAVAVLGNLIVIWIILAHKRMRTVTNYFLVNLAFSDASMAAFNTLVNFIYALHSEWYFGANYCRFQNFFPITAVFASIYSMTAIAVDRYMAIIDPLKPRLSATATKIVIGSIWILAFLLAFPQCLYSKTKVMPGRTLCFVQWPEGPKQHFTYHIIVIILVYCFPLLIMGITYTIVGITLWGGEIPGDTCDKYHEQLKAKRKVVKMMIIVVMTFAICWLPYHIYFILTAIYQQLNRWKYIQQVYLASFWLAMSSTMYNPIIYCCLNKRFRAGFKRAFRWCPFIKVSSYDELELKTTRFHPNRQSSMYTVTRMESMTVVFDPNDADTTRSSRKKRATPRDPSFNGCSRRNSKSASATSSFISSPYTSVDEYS

[3] = target: T3, 168 GPCRs (Homo sapiens, UniProt P35372); details: OPRM1
T3 construct: host or cells: PathHunter cell lines

[4] = target: T4, 168 GPCRs (Homo sapiens, UniProt P41145); details: OPRK1
T4 construct: host or cells: PathHunter cell lines

[5] = target: T5, 168 GPCRs (Homo sapiens, UniProt P41968); details: MC3R
T5 construct: host or cells: PathHunter cell lines

[6] = target: T6, 168 GPCRs (Homo sapiens, UniProt P49683); details: PRLHR
T6 construct: host or cells: PathHunter cell lines
T6 sequence (P49683 1-370): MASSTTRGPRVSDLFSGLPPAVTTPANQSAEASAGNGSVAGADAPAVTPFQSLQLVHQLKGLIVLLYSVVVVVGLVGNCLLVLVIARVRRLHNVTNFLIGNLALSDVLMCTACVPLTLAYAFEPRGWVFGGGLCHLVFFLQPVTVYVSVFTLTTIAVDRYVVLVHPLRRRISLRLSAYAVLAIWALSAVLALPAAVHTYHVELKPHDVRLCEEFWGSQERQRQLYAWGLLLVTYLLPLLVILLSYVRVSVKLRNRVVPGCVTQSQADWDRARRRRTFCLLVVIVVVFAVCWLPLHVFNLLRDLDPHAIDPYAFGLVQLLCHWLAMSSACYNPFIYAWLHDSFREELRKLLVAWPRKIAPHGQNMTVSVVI

[7] = target: T7, 168 GPCRs (Homo sapiens, UniProt Q8TCW9); details: PROKR1
T7 construct: host or cells: PathHunter cell lines

[8] = target: T8, 168 GPCRs (Homo sapiens, UniProt Q92847); details: GHSR
T8 construct: host or cells: PathHunter cell lines
T8 sequence (Q92847 whole entry): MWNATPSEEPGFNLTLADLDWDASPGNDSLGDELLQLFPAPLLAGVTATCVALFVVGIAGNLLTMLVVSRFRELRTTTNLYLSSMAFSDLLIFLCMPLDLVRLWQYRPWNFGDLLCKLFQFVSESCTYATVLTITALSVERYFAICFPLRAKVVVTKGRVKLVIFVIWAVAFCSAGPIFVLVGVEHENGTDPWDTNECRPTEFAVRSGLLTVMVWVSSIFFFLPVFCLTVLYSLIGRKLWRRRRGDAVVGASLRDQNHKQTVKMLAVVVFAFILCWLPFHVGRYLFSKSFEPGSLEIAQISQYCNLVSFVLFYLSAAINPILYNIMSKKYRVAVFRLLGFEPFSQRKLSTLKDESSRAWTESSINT

T3 sequence (P35372 whole entry): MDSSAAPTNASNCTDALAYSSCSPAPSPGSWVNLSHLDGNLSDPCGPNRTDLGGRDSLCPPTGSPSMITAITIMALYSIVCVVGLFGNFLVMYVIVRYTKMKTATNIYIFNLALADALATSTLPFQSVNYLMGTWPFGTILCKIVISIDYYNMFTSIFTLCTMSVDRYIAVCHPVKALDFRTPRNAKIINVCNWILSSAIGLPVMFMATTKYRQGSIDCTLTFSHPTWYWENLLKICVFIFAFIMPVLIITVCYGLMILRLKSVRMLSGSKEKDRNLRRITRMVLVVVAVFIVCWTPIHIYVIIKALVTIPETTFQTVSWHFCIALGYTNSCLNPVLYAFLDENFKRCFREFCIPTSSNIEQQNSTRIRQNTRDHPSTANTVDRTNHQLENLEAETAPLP
T7 sequence (Q8TCW9 whole entry): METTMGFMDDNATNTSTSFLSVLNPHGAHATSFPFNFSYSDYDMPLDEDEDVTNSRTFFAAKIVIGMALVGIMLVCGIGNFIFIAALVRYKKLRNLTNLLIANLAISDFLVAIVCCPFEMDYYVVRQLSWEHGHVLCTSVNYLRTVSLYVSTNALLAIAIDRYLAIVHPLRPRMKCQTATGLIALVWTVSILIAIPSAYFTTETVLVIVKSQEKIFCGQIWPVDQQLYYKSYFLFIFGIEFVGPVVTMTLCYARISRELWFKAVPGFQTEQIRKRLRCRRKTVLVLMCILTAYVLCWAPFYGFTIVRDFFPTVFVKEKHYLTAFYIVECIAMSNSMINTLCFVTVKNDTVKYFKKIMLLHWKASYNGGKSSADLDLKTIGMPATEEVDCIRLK
T4 sequence (P41145 whole entry): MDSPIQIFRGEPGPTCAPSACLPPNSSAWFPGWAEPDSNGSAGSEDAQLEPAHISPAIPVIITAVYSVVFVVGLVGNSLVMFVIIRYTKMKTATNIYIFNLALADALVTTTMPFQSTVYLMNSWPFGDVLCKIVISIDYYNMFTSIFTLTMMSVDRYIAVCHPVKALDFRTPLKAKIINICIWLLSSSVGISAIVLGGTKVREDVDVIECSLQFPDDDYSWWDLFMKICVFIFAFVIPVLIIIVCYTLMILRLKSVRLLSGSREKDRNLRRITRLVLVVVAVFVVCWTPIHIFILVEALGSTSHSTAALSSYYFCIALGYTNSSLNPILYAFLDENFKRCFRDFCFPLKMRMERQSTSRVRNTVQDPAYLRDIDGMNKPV
T5 sequence (P41968 whole entry): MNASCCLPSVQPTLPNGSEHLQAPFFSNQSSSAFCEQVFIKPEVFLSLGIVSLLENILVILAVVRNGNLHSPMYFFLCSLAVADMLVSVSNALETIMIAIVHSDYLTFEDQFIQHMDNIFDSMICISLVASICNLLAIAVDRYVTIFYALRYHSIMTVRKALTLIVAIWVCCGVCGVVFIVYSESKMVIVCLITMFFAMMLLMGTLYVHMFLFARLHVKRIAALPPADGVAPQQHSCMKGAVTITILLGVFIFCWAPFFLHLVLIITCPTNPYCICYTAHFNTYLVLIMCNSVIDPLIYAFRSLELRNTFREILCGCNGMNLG

Row | Structure (SMILES) | % Agonist Activity ([1]; 1 uM) | % Antagonist Activity ([1]; 1 uM) | % Agonist Activity ([1]; 10 uM) | % Antagonist Activity ([1]; 10 uM) | % Agonist Activity ([2]; Conc 1 uM) | % Antagonist Activity ([2]; Conc 1 uM) | % Agonist Activity ([2]; Conc 10 uM) | % Antagonist Activity ([2]; Conc 10 uM) | % Agonist Activity ([3]; Conc 1 uM) | % Antagonist Activity ([3]; Conc 1 uM) | % Agonist Activity ([3]; Conc 10 uM) | % Antagonist Activity ([3]; Conc 10 uM) | % Agonist Activity ([4]; Conc 1 uM) | % Antagonist Activity ([4]; Conc 1 uM) | % Agonist Activity ([4]; Conc 10 uM) | % Antagonist Activity ([4]; Conc 10 uM) | % Agonist Activity ([5]; 1 uM) | % Antagonist Activity ([5]; 1 uM) | % Agonist Activity ([5]; 10 uM) | % Antagonist Activity ([5]; 10 uM) | further results
1 | CNC(C)C(=O)c1ccc2c(c1)OCO2 (stereo not shown) [methylone] | -1% | 8.5% | 1.3% | 6.3% | 0.8% | -3.9% | 1.1% | -14.3% | 0.2% | -8% | 0.5% | -18% | -6.3% | 11.8% | -4.1% | 10.4% | -3.2% | -5.7% | -1.8% | 0.3% | % Agonist Activity ([6]; Conc 1 uM): -2.2%; % Antagonist Activity ([6]; Conc 1 uM): 17.8%; % Agonist Activity ([6]; Conc 10 uM): -0.2%; % Antagonist Activity ([6]; Conc 10 uM): 15.8%; % Agonist Activity ([7]; Conc 1 uM): -1.3%; % Antagonist Activity ([7]; Conc 1 uM): 8.7%; % Agonist Activity ([7]; Conc 10 uM): -2.8%; % Antagonist Activity ([7]; Conc 10 uM): 3.3%; % Agonist Activity ([8]; 1 uM): -6.6%; % Antagonist Activity ([8]; 1 uM): 25.8%; % Agonist Activity ([8]; 10 uM): -7.2%; % Antagonist Activity ([8]; 10 uM): 9.1%
2 | CNC(C)Cc1ccc2c(c1)OCO2 (stereo not shown) [MDMA, 3,4-Methylenedioxy methamphetamine, reference compound] | 5.2% | 12.8% | 1.3% | 2.9% | 0.1% | 14.6% | 1% | 19.1% | -0.4% | -22.1% | -0.2% | -18.9% | 1.7% | 16.7% | 0.5% | 18.1% | 0.7% | 5.9% | 1.3% | 1.9% | % Agonist Activity ([6]; Conc 1 uM): 1.5%; % Antagonist Activity ([6]; Conc 1 uM): 6%; % Agonist Activity ([6]; Conc 10 uM): -0.3%; % Antagonist Activity ([6]; Conc 10 uM): 10.8%; % Agonist Activity ([7]; Conc 1 uM): 0.3%; % Antagonist Activity ([7]; Conc 1 uM): -8.7%; % Agonist Activity ([7]; Conc 10 uM): 0.7%; % Antagonist Activity ([7]; Conc 10 uM): 8.5%; % Agonist Activity ([8]; 1 uM): 3%; % Antagonist Activity ([8]; 1 uM): -30.8%; % Agonist Activity ([8]; 10 uM): 3.1%; % Antagonist Activity ([8]; 10 uM): -7%

From paper PMC10882719 (Frontiers in Neuroscience, 2024)
